Results as given in patent publication US20060069132A1, “Azolecarboxamide herbicides” (priority 2004, published 2006).

What was measured:
morningglory [1] = test: Test A pre-/postemergence herbicide test; format: in vivo, Ipomoea spp.
How it was run: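 Both application timings were run together: directed soil spray over freshly planted seeds in sandy loam, and runoff spray onto 2–10 cm seedlings. Evaluation after ~10 days in greenhouse used a 0–100 visual scale versus untreated controls.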

rice = test: Test B pre-/postemergence herbicide test; format: in vivo, Oryza sativa; conditions: preemergence; for Plant response rating, Rice: 500 g ai/ha
How it was run: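 Formulation: non-phytotoxic solvent mix with surfactant. Timing: preemergence on seed and postemergence on 2–18 cm plants, applied concurrently. Readout after 13–15 d greenhouse: visual 0–100 control rating against controls.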

bermudagrass = test: Test C pre-/postemergence herbicide test; format: in vivo, Cynodon dactylon; conditions: for Bermudagrass plant response rating: Preemergence, 500 g ai/ha
How it was run: (§1)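 Emerged plants at the 1- to 4-leaf stage (2–18 cm), or freshly planted seeds, received test chemicals in a non-phytotoxic solvent mixture with surfactant. Response was visually scored against controls after 12 to 14 days in the greenhouse, on a 0 (no effect) to 100 (complete control) scale.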

giant foxtail = test: Test C pre-/postemergence herbicide test; format: in vivo, Setaria faberi
How it was run: as §1

goosegrass = test: Test C pre-/postemergence herbicide test; format: in vivo, Eleusine indica
How it was run: as §1

kochia = test: Test C pre-/postemergence herbicide test; format: in vivo, Kochia scoparia
How it was run: as §1

morningglory [2] = test: Test C pre-/postemergence herbicide test; format: in vivo, Ipomoea coccinea; design: key to Plant response rating, Morningglory: 0 = no effect, 100 = complete control
How it was run: as §1

soybean = test: Test C pre-/postemergence herbicide test; format: in vivo, Glycine max
How it was run: as §1

[3] = tested on: common (oilseed) sunflower; test: Test C pre-/postemergence herbicide test; format: in vivo, Helianthus annuus
How it was run: as §1

[4] = tested on: smallflower umbrella sedge; test: Test C flooded paddy test; format: in vivo, Cyperus difformis; conditions: for Plant response rating, Sedge, Umbrella: 500 g ai/ha, visual rating after 12 to 14 days
[5] = 125 g ai/ha, scale 0 (no effect) to 100 (complete control), visual, 12 to 14 days, preemergence
[6] = 250 g ai/ha, scale 0 to 100 (0 no effect, 100 complete control), visual, 12 to 14 days, preemergence
[7] = scale 0 to 100, 0 no effect, 100 complete control
[8] = Preemergence, 500 g ai/ha, scale 0 to 100, 0 no effect, 100 complete control
[9] = 62 g ai/ha, scale 0 to 100 (0 no effect, 100 complete control)
[10] = 125 g ai/ha, scale 0 to 100 (0 no effect, 100 complete control)
[11] = 250 g ai/ha, scale of 0 to 100, 0 is no effect, 100 is complete control
[12] = scale 0 to 100 (0 no effect, 100 complete control)
[13] = 250 g ai/ha, scale 0-100, preemergence
[14] = 62 g ai/ha, preemergence, scale 0 to 100
[15] = 500 g ai/ha, scale 0 to 100 (0 no effect, 100 complete control), visual, 12 to 14 days, preemergence

CCn1nc(C(C)(C)C)cc1C(=O)Nc1cccc(S(=O)(=O)C(F)(F)F)c1 [Compound 134]
Morningglory plant response rating (morningglory [1]; Postemergence, 250 g ai/ha, 0 to 100 scale, 0 no effect, 100 complete control): 10
Plant response rating, Morningglory (morningglory [1]; Postemergence, 1000 g ai/ha, 0 to 100 scale, 0 no effect, 100 complete control): 20
Morningglory plant response rating (morningglory [1]; Preemergence, 1000 g ai/ha, visual rating, 0 to 100 scale (0 no effect, 100 complete control)): 30
Morningglory plant response rating (morningglory [1]; preemergence, 250 g ai/ha, visual injury, 0 to 100 scale (0 no effect, 100 complete control)): 5
Plant response rating, Rice (rice; visual rating 0-100, 0 no effect, 100 complete control): 50
Plant response rating (0 = no effect, 100 = complete control), Bermudagrass (bermudagrass; 62 g ai/ha, preemergence): 80
Plant response rating, Bermudagrass (bermudagrass; [5]): 95
Plant response rating, Bermudagrass (bermudagrass; [6]): 95
Bermudagrass plant response rating (bermudagrass; [7]): 100
Plant response rating (0 = no effect, 100 = complete control), Foxtail, Giant (giant foxtail; 62 g ai/ha, preemergence): 0
Plant response rating, Foxtail, Giant (giant foxtail; [5]): 0
Plant response rating, Foxtail, Giant (giant foxtail; [6]): 0
Foxtail, Giant plant response rating (giant foxtail; [8]): 85
Plant response rating (0 = no effect, 100 = complete control), Goosegrass (goosegrass; 62 g ai/ha, preemergence): 20
Plant response rating, Goosegrass (goosegrass; [5]): 65
Goosegrass plant response rating (goosegrass; [8]): 95
Plant response rating (0 = no effect, 100 = complete control), Kochia (kochia; 62 g ai/ha, preemergence): 85
Plant response rating, Kochia (kochia; [5]): 100
Kochia plant response rating (kochia; [8]): 100
Plant response rating (0 = no effect, 100 = complete control), Morningglory (morningglory [2]; 62 g ai/ha, preemergence): 0
Plant response rating, Morningglory (morningglory [2]; [5]): 0
Morningglory plant response rating (morningglory [2]; [8]): 75
Plant response rating (0 = no effect, 100 = complete control), Soybean (soybean; 62 g ai/ha, preemergence): 0
Plant response rating, Soybean (soybean; [5]): 0
Soybean plant response rating (soybean; [8]): 35
Plant response rating (0 = no effect, 100 = complete control), Sunflower ([3]; 62 g ai/ha, preemergence): 0
Plant response rating, Sunflower [3, 5]: 0
Sunflower plant response rating [3, 8]: 0
Sedge, Umbrella plant response rating [4, 9]: 55
Sedge, Umbrella plant response rating [4, 10]: 75
Sedge, Umbrella plant response rating [4, 11]: 85
Plant response rating, Sedge, Umbrella [4, 12]: 85

CCc1nc(C(C)(C)C)sc1C(=O)Nc1cccc(C(=O)NCC2CC2)n1 [Compound 215]
Morningglory plant response rating (morningglory [1]; Postemergence, 500 g ai/ha, 0 to 100 scale, 0 no effect, 100 complete control): 25
Plant response rating, Morningglory (morningglory [1]; Postemergence, 2000 g ai/ha, 0 to 100 scale, 0 no effect, 100 complete control): 35
Morningglory plant response rating (morningglory [1]; Preemergence, 2000 g ai/ha, visual rating, 0 to 100 scale (0 no effect, 100 complete control)): 55
Morningglory plant response rating (morningglory [1]; preemergence, 500 g ai/ha, visual injury, 0 to 100 scale (0 no effect, 100 complete control)): 20
Rice plant response rating (0 to 100 scale) (rice; 125 g ai/ha, 0 = no effect, 100 = complete control): 0
Plant response rating, Rice (rice; visual rating, 0 = no effect, 100 = complete control): 0
Plant response rating, Bermudagrass (bermudagrass; 62 g ai/ha, preemergence, scale 0 to 100, 0 no effect, 100 complete control): 40
Plant response rating, Bermudagrass (bermudagrass; [5]): 70
Plant response rating, Bermudagrass (bermudagrass; [13]): 85
Bermudagrass plant response rating (bermudagrass; [7]): 100
Plant response rating, Foxtail, Giant (giant foxtail; [14]): 0
Plant response rating, Foxtail, Giant (giant foxtail; [5]): 50
Plant response rating, Foxtail, Giant (giant foxtail; [13]): 70
Plant response rating, Foxtail, Giant (giant foxtail; [15]): 100
Plant response rating, Goosegrass (goosegrass; [14]): 0
Plant response rating, Goosegrass (goosegrass; [5]): 40
Plant response rating, Goosegrass (goosegrass; [13]): 80
Plant response rating, Goosegrass (goosegrass; [15]): 100
Plant response rating, Kochia (kochia; [14]): 100
Plant response rating, Kochia (kochia; [5]): 100
Plant response rating, Kochia (kochia; [13]): 100
Plant response rating, Kochia (kochia; [15]): 100
Plant response rating, Morningglory (morningglory [2]; [14]): 0
Plant response rating, Morningglory (morningglory [2]; [5]): 0
Plant response rating, Morningglory (morningglory [2]; [13]): 0
Plant response rating, Morningglory (morningglory [2]; [15]): 40
Plant response rating, Soybean (soybean; [14]): 0
Plant response rating, Soybean (soybean; [13]): 0
Plant response rating, Soybean (soybean; [15]): 0
Plant response rating, Sunflower [3, 14]: 0
Plant response rating, Sunflower [3, 13]: 0
Plant response rating, Sunflower [3, 15]: 0
Sedge, Umbrella plant response rating [4, 9]: 40
Sedge, Umbrella plant response rating [4, 10]: 40
Sedge, Umbrella plant response rating [4, 11]: 70
Plant response rating, Sedge, Umbrella [4, 12]: 90
